According to patent publication US20170114049A1, “2,5-DISUBSTITUTED CYCLOPENTANE CARBOXYLIC ACIDS FOR THE TREATMENT OF RESPIRATORY TRACT DISEASES” (BAYER PHARMA AKTIENGESELLSCHAFT, priority 2014, published 2017):
In brackets after ≈: the same amount, converted by molar mass.

Assays:
MMP-14 = target: T1, MMP-14 (Homo sapiens, UniProt P50281); assay: In vitro MMP-14 inhibition test; assay type: biochemical
T1 construct: purchased R&D Systems 918-MP
Source text: (§1) The MMP-mediated amidolytic cleavage of a suitable peptide substrate leads to an increase in fluorescent light here too. The signal intensity of the fluorescent light is directly proportional to the enzyme activity. The active concentration of a test compound at which half the enzyme is inhibited (50% signal intensity of the fluorescent light) is reported as the […].
Recombinant MMP-14 (from R&D Systems, 918-MP) is enzymatically activated in accordance with the manufacturer's instructions using recombinant furin (from R&D Systems, 1503-SE). 1 μl of the test compound to be analysed (as a solution in DMSO, suitable concentrations e.g. 1 nM to 30 μM) is pipetted into 24 μl of activated enzyme (final concentration e.g. 0.5 nM) in reaction buffer (50 mM Tris/HCl pH 7.5, 10 mM CaCl2, 150 mM NaCl, 0.05% Brij®-35) in a white 384-hole microtiter plate (MTP). The enzymatic reaction is started by adding the intramolecularly quenched Mca-Lys-Pro-Leu-Gly-Leu-Dpa(Dnp)-Ala-Arg-NH2 substrate (final concentration, for example, 5 μM; R&D Systems, ES-010), so as to result in a total test volume of 50 μl. The course of the MMP-14 reaction is measured by measuring the fluorescence intensity (excitation 320 nm, emission 410 nm) over a suitable period of time (for example over 120 min at a temperature of 32° C.).

MMP-2 = target: T2, MMP-2 (Homo sapiens, UniProt P08253); assay: In vitro MMP-2 inhibition test; assay type: biochemical
T2 construct: purchased R&D Systems 902-MP
T2 sequence (P08253 110-660): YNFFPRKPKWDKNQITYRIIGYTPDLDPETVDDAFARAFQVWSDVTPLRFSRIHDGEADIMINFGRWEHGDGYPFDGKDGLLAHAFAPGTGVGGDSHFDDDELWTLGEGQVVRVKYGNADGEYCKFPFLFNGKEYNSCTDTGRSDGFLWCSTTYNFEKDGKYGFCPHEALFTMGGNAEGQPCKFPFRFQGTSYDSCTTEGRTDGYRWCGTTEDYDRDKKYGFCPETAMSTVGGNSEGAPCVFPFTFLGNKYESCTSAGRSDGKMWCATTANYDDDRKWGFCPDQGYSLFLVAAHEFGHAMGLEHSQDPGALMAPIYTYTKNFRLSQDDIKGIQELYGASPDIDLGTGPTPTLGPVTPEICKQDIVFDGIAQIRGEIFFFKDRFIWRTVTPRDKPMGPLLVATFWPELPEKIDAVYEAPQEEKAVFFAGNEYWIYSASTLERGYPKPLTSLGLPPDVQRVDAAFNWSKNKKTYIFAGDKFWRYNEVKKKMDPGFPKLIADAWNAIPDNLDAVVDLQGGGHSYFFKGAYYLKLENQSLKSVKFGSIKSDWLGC
Source text: as §1
Recombinant MMP-2 (from R&D Systems, 902-MP) is chemically activated in accordance with the manufacturer's instructions using APMA. 1 μl of the test compound to be analysed (as a solution in DMSO, suitable concentrations, for example, 1 nM to 30 μM) is pipetted into 24 μl of activated enzyme (final concentration, for example, 2 nM) in reaction buffer (50 mM Tris/HCl pH 7.5, 10 mM CaCl2, 150 mM NaCl, 0.05% Brij®-35) in a white 384-hole microtiter plate (MTP). The enzymatic reaction is started by adding the intramolecularly quenched Mca-Pro-Leu-Gly-Leu-Dpa(Dnp)-Ala-Arg-NH2 substrate (final concentration, for example, 10 μM; R&D Systems, ES-001), so as to result in a total test volume of 50 μl. The course of the MMP-2 reaction is measured by measuring the fluorescence intensity (excitation 320 nm, emission 410 nm) over a suitable period of time (for example over 120 min at a temperature of 32° C.).

[1] = target: T3, human macrophage elastase (HME/hMMP-12) (Homo sapiens, UniProt P39900); assay: In vitro HME inhibition test in the presence of serum albumin (BSA) in the reaction buffer; assay type: biochemical; settings: presence of serum albumin (BSA) 2% (w/w)
T3 construct: 0.5 nM HME; purchased R&D Systems 917-MP
Source text: This test corresponds to the standard HME inhibition test described above, except using a modified reaction buffer. This reaction buffer additionally contains bovine serum albumin (BSA, fatty acid-free, A6003, from Sigma-Aldrich) of final concentration 2% (w/w), which corresponds to about half the physiological serum albumin content.

[2] = Determination of solubility in PBS buffer pH 6.5; settings: PBS buffer pH 6.5, 1% DMSO, room temperature; for solubility at 24 h: PBS buffer, pH 6.5, aqueous buffer, kinetic from dmso stock
Description: The test substance is dissolved in DMSO. An aliquot is taken from this solution and introduced into PBS buffer pH 6.5 (DMSO content: 1%). This solution/suspension is agitated at room temperature for 24 h. After ultracentrifugation at 114000 g for 30 min, the supernatant is removed, diluted with acetonitrile/water 8:2 and analysed by LC-MSMS. Quantification is effected by means of a five-point calibration curve of the test compound in DMSO.

mouse MMP-12 = target: T4, mouse MMP-12 (Mus musculus, UniProt P34960); assay: In vitro mouse MMP-12 inhibition test (standard or high-sensitivity); assay type: biochemical
T4 construct: purchased R&D Systems 3467-MP
Source text: as §1
Recombinant mouse MMP-12 (from R&D Systems, 3467-MP) is autocatalytically activated in accordance with the manufacturer's instructions. 1 μl of the test compound to be analysed (as a solution in DMSO, suitable concentrations, for example, 1 nM to 30 μM) is pipetted into 24 μl of activated enzyme (final concentration, for example, 1 nM) in reaction buffer (50 mM Tris/HCl pH 7.5, 10 mM CaCl2, 150 mM NaCl, 0.05% Brij®-35) in a white 384-hole microtiter plate (MTP). The enzymatic reaction is started by adding the intramolecularly quenched Mca-Lys-Pro-Leu-Gly-Leu-Dpa(Dnp)-Ala-Arg-NH2 substrate (final concentration, for example, 5 μM; R&D Systems, ES-010), so as to result in a total test volume of 50 μl. The course of the MMP-12 reaction is measured by measuring the fluorescence intensity (excitation 320 nm, emission 410 nm) over a suitable period of time (for example over 120 min at a temperature of 32° C.).
In this case, an enzyme concentration ten times lower is used (final concentration, for example, 0.1 nM) in order to achieve an elevated test sensitivity. The incubation period chosen for the test is correspondingly longer (for example 16 hours).

T3 sequence (P39900 106-470): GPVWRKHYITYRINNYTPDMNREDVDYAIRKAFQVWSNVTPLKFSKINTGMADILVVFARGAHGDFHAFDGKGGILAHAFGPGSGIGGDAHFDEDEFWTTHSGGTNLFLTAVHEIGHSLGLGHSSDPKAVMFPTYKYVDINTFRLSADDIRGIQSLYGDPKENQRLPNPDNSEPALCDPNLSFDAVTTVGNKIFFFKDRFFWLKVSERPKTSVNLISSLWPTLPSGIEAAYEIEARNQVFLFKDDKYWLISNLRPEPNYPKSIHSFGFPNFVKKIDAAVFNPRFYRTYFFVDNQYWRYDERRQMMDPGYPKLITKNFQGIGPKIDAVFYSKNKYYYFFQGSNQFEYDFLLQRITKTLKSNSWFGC
T4 sequence (P34960 110-473): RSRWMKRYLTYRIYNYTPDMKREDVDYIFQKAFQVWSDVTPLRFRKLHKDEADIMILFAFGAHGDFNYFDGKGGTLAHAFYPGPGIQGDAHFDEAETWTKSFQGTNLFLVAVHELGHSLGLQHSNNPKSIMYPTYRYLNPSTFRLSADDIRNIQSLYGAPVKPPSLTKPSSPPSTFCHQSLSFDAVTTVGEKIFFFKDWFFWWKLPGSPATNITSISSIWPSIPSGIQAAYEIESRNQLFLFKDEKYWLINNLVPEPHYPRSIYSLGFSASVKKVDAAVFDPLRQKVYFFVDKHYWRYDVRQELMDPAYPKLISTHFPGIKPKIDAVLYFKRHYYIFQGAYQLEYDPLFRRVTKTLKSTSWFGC

Molecule	IC50 (MMP-14) [nM]	IC50 (MMP-2) [nM]	IC50 [1] [nM]	solubility at 24 h [2] [µg/mL]	IC50 (mouse MMP-12) [nM]	Solubility ([2]; 24 h) [µg/mL]
O=C(O)[C@H]1[C@H](Cn2nnc3ccc(C(F)(F)F)cc3c2=O)CC[C@@H]1C(=O)c1ccc(OCC2CCOCC2)cc1 (racemic) [Example 7, (+/−)-(1RS,2SR,5RS)-2-{[4-Oxo-6-(trifluoromethyl)-1,2,3-benzotriazin-3(4H)-yl]methyl}-5-[4-(tetrahydro-2H-pyran-4-ylmethoxy)benzoyl]cyclopentanecarboxylic acid]	170	380				
O=C(O)[C@@H]1[C@@H](Cn2nnc3ccc(C(F)(F)F)cc3c2=O)CC[C@H]1C(=O)c1ccc(OCCC2CCOCC2)cc1 (single isomer, unassigned) [Example 11, (+)-(1RS,2SR,5RS)-2-{[4-Oxo-6-(trifluoromethyl)-1,2,3-benzotriazin-3(4H)-yl]methyl}-5-{4-[2-(tetrahydro-2H-pyran-4-yl)ethoxy]benzoyl}cyclopentanecarboxylic acid]	1200	510	39.2	210 (≈ 366 µM)	9.4	
O=C(O)[C@@H]1[C@@H](Cn2nnc3ccc(C(F)(F)F)cc3c2=O)CC[C@H]1C(=O)c1ccc(SCC2CCOCC2)cc1 (single isomer, unassigned) [Example 15, (+)-(1RS,2SR,5RS)-2-{[4-Oxo-6-(trifluoromethyl)-1,2,3-benzotriazin-3(4H)-yl]methyl}-5-{4-[(tetrahydro-2H-pyran-4-ylmethyl)sulphanyl]benzoyl}cyclopentanecarboxylic acid]	150	330	16			
O=C(O)[C@H]1[C@H](Cn2nnc3ccccc3c2=O)CC[C@@H]1C(=O)c1ccc(OCC2CCOCC2)cc1 (stereo in doubt) [Example 1, (+/−)-(1RS,2SR,5RS)-2-[(4-Oxo-1,2,3-benzotriazin-3(4H)-yl)methyl]-5-[4-(tetrahydro-2H-pyran-4-ylmethoxy)benzoyl]cyclopentanecarboxylic acid]	160	140	6.45	52.2 (≈ 106 µM)	3.3	
O=C(O)[C@@H]1[C@@H](Cn2nnc3ccccc3c2=O)CC[C@H]1C(=O)c1ccc(OCC2CCOCC2)cc1 (stereo in doubt) [Example 2, (+)-(1RS,2SR,5RS)-2-[(4-Oxo-1,2,3-benzotriazin-3(4H)-yl)methyl]-5-[4-(tetrahydro-2H-pyran-4-ylmethoxy)benzoyl]cyclopentanecarboxylic acid]	99	60	6.71		0.85	
O=C(O)[C@H]1[C@H](Cn2nnc3ccc(C(F)(F)F)cc3c2=O)CC[C@@H]1C(=O)c1ccc(OCCC2CCOCC2)cc1 (stereo in doubt) [Example 10, (+/−)-(1RS ,2S R,5RS)-2-{[4-Oxo-6-(trifluoromethyl)-1,2,3-benzotriazin-3(4H)-yl]methyl}-5-{4-[2-(tetrahydro-2H-pyran-4-yl)ethoxy]benzoyl}cyclopentanecarboxylic acid]	600	220		33.4 (≈ 58.2 µM)	2.8	
(+)-(1RS,2SR,5RS)-2-{[4-Oxo-6-(trifluoromethyl)-1,2,3-benzotriazin-3(4H)-yl]methyl}-5-[4-(tetra-hydro-2H-pyran-4-ylmethoxy)benzoyl]cyclopentanecarboxylic acid [Example 8]	100	140	2.45			4.5

Second part, led by results:

IC50 (MMP-14) [nM]	IC50 (MMP-2) [nM]	IC50 [1] [nM]	solubility at 24 h [2] [µg/mL]	IC50 (mouse MMP-12) [nM]	Molecule	Solubility ([2]; 24 h) [µg/mL]
2700	930	32	17 (≈ 32.7 µM)	7.6	Cc1ccc2nnn(C[C@@H]3CC[C@H](C(=O)c4ccc(OCCC5CCOCC5)cc4)[C@H]3C(=O)O)c(=O)c2c1 (racemic) [Example 19, (+/−)-(1RS,2SR,5RS)-2-[(6-Methyl-4-oxo-1,2,3-benzotriazin-3(4H)-yl)methyl]-5-{4-[2-(letrahydro-2H-pyran-4-yl)ethoxy]benzoyl}cyclopentanecarboxylic acid]	
250	44	4.06	338 (≈ 669 µM)	0.67	O=C(O)[C@@H]1[C@@H](Cn2nnc3ccccc3c2=O)CC[C@H]1C(=O)c1ccc(OCCC2CCOCC2)cc1 (single isomer, unassigned) [Example 5, (+)-(1RS,2SR,5RS)-2-[(4-Oxo-1,2,3-benzotriazin-3(4H)-yl)methyl]-5-{4-[2-(tetrahydro-2H-pyran-4-yl)ethoxy]benzoyl}cyclopentanecarboxylic acid]	
1000	300	12.2	425 (≈ 818 µM)	1.7	Cc1ccc2nnn(C[C@H]3CC[C@@H](C(=O)c4ccc(OCCC5CCOCC5)cc4)[C@@H]3C(=O)O)c(=O)c2c1 (single isomer, unassigned) [Example 20, (+)-(1RS,2SR,5RS)-2-[(6-Methyl-4-oxo-1,2,3-benzotriazin-3(4H)-yl)methyl]-5-{4-[2-(tetrahydro-2H-pyran-4-yl)ethoxy]benzoyl}cyclopentanecarboxylic acid]	
2700	360	37.3	51.4 (≈ 102 µM)	7.7	O=C(O)[C@H]1[C@H](Cn2nnc3ccccc3c2=O)CC[C@@H]1C(=O)c1ccc(OCCC2CCOCC2)cc1 (stereo in doubt) [Example 4, (+/−)-(1RS,2SR,5RS)-2-[(4-Oxo-1,2,3-benzotriazin-3(4H)-yl)methyl]-5-{4-[2-(tetrahydro-2H-pyran-4-yl)ethoxy]benzoyl}cyclopentanecarboxylic acid]	
